Laboratory results: patent US20240190838A1, “LZK-TARGETING DEGRADERS AND METHODS OF USE” (The U.S.A., as represented by the Secretary, Department of …, priority 2020, published 2024)
Numbering of substitutions follows the chain as printed. Blank lines part the entries; values can stand above or below the compound they belong to.

Key:
Kinetic solubility assay = format: physicochemical; conditions: kinetic from dmso stock
LZK^Q240S = biological target: T1, LZK^Q240S (Homo sapiens, UniProt O43283, Q240S); assay: JNK signaling with drug-resistant mutant LZK Q240S; format: cell-based; conditions: drug-resistant mutant expression
T1 construct: FLAG (transient 293T overexpression vector); expressed in transfected cells
T1 sequence (O43283 1-966 Q240S): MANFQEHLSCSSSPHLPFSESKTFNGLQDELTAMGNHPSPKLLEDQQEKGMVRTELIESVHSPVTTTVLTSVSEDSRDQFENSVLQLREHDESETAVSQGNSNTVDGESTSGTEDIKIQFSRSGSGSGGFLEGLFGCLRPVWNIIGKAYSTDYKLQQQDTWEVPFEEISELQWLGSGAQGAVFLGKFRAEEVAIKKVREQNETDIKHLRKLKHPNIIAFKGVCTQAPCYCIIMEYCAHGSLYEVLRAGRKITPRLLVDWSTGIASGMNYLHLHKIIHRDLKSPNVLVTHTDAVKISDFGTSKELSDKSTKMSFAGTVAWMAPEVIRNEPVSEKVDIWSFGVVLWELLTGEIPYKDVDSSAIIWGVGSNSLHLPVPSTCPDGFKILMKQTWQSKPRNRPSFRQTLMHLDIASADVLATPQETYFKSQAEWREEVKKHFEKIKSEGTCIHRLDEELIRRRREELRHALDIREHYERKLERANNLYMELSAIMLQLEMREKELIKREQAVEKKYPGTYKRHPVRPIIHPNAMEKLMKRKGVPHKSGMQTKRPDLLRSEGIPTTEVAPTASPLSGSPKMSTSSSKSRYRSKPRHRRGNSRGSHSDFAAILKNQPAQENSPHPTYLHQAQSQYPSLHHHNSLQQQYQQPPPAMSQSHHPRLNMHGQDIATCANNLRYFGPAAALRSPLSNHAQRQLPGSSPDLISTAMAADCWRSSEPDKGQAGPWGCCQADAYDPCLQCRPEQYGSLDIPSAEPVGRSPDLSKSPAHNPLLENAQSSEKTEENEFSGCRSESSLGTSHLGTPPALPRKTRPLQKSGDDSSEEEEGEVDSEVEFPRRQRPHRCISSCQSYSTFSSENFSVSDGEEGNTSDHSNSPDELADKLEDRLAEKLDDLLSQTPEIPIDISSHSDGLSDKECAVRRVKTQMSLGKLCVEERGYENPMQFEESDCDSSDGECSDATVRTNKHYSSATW
Protocol: The ViraPower HiPerform T-REx Gateway Expression System (Invitrogen) was used to generate cells with tetracycline-inducible expression of LZK. […] Cell lines were generated by antibiotic selection (blasticidin [Gibco] and geneticin [Gibco]). Doxycycline (Sigma-Aldrich) was used at 1 μg/mL to induce LZK expression.
Protein concentrations were determined from the cell lysate by using 660 nm Protein Assay Reagent (Pierce).

LZK = biological target: T2, LZK (Homo sapiens, UniProt O43283); assay: In vitro kinase assay (LZK phosphorylation of MKK7); format: biochemical; design: purchased Carna Biosciences 09-114; conditions: 100 μM ATP
T2 sequence (O43283 1-966): T1 sequence (O43283 1-966 Q240S) with S240Q
Protocol: The assay was performed with 100 μM ATP at 37° C. for 30 minutes. Following the addition of 4× reducing SDS sample buffer, proteins were resolved by sodium dodecyl sulfate-polyacrylamide gel electrophoresis (SDS-PAGE) and immunoblot analysis was performed as stated previously.

solubility (Kinetic solubility assay): < 1 µg/mL
SMILES: Cc1ncsc1-c1ccc([C@H](C)NC(=O)[C@@H]2C[C@@H](O)CN2C(=O)[C@@H](NC(=O)CCCCCCC(=O)N2CCC(c3cc(Nc4cc(C#N)ccn4)nc(N4CCC(F)(F)C4)c3)CC2)C(C)(C)C)cc1 [Compound 3]

JNK signaling / catalytic activity of LZK Q240S in presence of inhibitor (LZK^Q240S): rescued JNK signaling
SMILES: CC(=O)N1CCC(c2cc(Nc3cc(C#N)ccn3)nc(N3CCC(F)(F)C3)c2)CC1 [LZK inhibitor 2]

SMILES: N#Cc1ccnc(Nc2cc(C3CCN(C4COC4)CC3)cc(N3CCC(F)(F)C3)n2)c1 [GNE-3511]
in vitro phosphorylation of MKK7 (LZK): decreased in vitro phosphorylation of MKK7
